Source: ChEMBL document CHEMBL1141226, “Discovery of a potent, orally available, and isoform-selective retinoic acid beta2 receptor agonist” (J Med Chem, 2005)
Converted amounts (≈) assume the structure as drawn. The source made the active and inactive calls. The rule behind the calls is not given here.

Key:
[1] = target: T1, Retinoic acid receptor beta (Homo sapiens) (UniProt P10826); assay: Efficacy against RARbeta2
T1 sequence (whole entry): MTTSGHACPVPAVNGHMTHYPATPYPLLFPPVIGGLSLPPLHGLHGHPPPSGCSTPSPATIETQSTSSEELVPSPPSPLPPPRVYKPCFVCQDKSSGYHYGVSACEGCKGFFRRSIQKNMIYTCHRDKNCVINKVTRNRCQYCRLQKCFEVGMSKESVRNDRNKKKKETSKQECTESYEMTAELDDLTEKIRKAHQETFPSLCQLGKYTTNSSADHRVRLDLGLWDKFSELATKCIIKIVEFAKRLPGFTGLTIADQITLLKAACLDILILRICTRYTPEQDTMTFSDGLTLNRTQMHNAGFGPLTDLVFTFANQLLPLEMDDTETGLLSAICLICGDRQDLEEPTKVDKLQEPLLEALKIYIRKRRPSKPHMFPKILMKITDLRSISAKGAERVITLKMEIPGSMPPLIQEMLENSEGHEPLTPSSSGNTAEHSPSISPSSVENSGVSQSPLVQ

[2] = target: T2, Retinoic acid receptor beta (Homo sapiens, UniProt P10826); assay: Transcriptional activity against RARbeta2; format: functional
T2 sequence (P10826 whole entry): T1 sequence (whole entry)

[3] = target: T1, Retinoic acid receptor beta (Homo sapiens); assay: Efficacy against RARbeta1
[4] = target: T2, Retinoic acid receptor beta; assay: Transcriptional activity against RARbeta1; format: functional
[5] = Distribution coefficient of the compound, log D; format: physicochemical; details: octanol/water
[6] = Partition coefficient of the compound, log P; format: physicochemical; details: octanol/water
[7] = Oral bioavailability in Rats; format: ADME, organism-based; details: rat, in vivo
[8] = Solubility at pH 7.4; format: physicochemical; details: buffer
[9] = system: MCF7; assay: Inhibition of DNA synthesis in MCF7 cells by [3H]thymidine incorporation; format: functional, cell-based; details: Homo sapiens

| SMILES | Efficacy [1] | EC50 [2] [nM] | Efficacy [3] | EC50 [4] [µM] | logD [5] | logP [6] | bioavailability [7] [%] | solubility [8] [µg/mL] | Activity [9] |
| --- | --- | --- | --- | --- | --- | --- | --- | --- | --- |
| CCCCCCCc1ccc(-c2ccc(C(=O)O)cc2)cc1 | 64% | 25.1 | inactive | > 10 |  |  |  |  |  |
| CCCCCCCCCc1ccc(-c2ccc(C(=O)O)cc2)cc1 | 100% | 15.8 | 58% | 0.316 |  |  |  |  |  |
| CCCCCCc1ccc(-c2ccc(C(=O)O)cc2)cc1 | 37% | 50.1 | inactive | > 10 |  |  |  |  |  |
| CCCCOCCOc1nc(-c2ccc(C(=O)O)c(F)c2)sc1C | 96% |  | 40% |  | 1.4 | 5.1 | 52 | 4800 (≈ 13.6 mM) |  |
| CCCCCCCCc1ccc(-c2ccc(C(=O)O)cc2)cc1 | 92% | 126 | 31% | > 10 |  |  |  | < 1 | Active |

More lines, main results first:

| Efficacy [1] | EC50 [2] [nM] | Efficacy [3] | EC50 [4] [µM] | logD [5] | logP [6] | bioavailability [7] [%] | solubility [8] [µg/mL] | SMILES | Activity [9] |
| --- | --- | --- | --- | --- | --- | --- | --- | --- | --- |
| 100% |  |  |  |  |  |  |  | CC1(C)CCC(C)(C)c2cc(C(=O)Nc3ccc(C(=O)O)cc3)ccc21 |  |
| 36% | 63.1 | inactive | > 10 |  |  |  |  | CCCCc1ccc(-c2ccc(C(=O)O)cc2)cc1 |  |
| 38% | 15.8 | inactive | > 10 |  |  |  |  | CCCCCc1ccc(-c2ccc(C(=O)O)cc2)cc1 |  |
| inactive |  | inactive |  |  |  |  |  | CCc1ccc(-c2ccc(C(=O)O)cc2)cc1 |  |
| inactive |  | inactive |  |  |  |  |  | CCCc1ccc(-c2ccc(C(=O)O)cc2)cc1 |  |
